Assay results as given in paper PMC7503713, “GANT61 Reduces Hedgehog Molecule (GLI1) Expression and Promotes Apoptosis in Metastatic Oral Squamous Cell Carcinoma Cells” (International Journal of Molecular Sciences, 2020).

Experiments:
Format in all cases: cell-based, human
AGP01 = assay: alamarBlue cytotoxicity assay, AGP01; settings: Homo sapiens, 72 h of incubation
Experimental: (§1) To assess the cytotoxicity of the GLI inhibitor GANT61 (Sigma-Aldrich, St. Louis, MO, USA) in tumor and non-tumor cell lines, an alamarBlue assay (Sigma-Aldrich Chemical Co, St. Louis, MO, USA) was performed after 72 h of exposure to the inhibitor, as described by Ahmed et al., 1994 [46]. Cells were distributed on 96-well plates at a density of 7 × 10^4 cells/mL for adhered cells, and 3 × 10^5 cells/mL for cells in suspension. All tested compounds were dissolved in DMSO, added to wells containing 100 µL of cells in complete medium, and then incubated for 72 h. Eight concentrations of GANT61 (0.19 to 50 µg/mL), Doxorubicin (Laboratory IMA S.A.I.C., Buenos Aires, Argentina), and 5-Fluorouracil (5-FU, Sigma-Aldrich, St. Louis, MO, USA), both used as positive controls at concentrations ranging from 0.03 to 5 µg/mL, were added to respective wells. […] Absorbance was measured at 570 nm (reduced) and 595 nm (oxidized) wavelengths, using a Spectramax 190 plate reader (Molecular Devices; Sunnyvale, CA, USA).
(§2) Statistical analyses were performed, using GraphPad Prism v. […] Data were analyzed according to distribution along the normal Gaussian curve. […] Differences between groups resulting from in vitro assays were evaluated by ANOVA (analysis of variance) testing, followed by the Student–Newman–Keuls test. […]

K562 = assay: alamarBlue cytotoxicity assay, K562; settings: Homo sapiens, 72 h of incubation
Experimental: (§3) To assess the cytotoxicity of the GLI inhibitor GANT61 (Sigma-Aldrich, St. Louis, MO, USA) in tumor and non-tumor cell lines, an alamarBlue assay (Sigma-Aldrich Chemical Co, St. Louis, MO, USA) was performed after 72 h of exposure to the inhibitor, as described by Ahmed et al., 1994 [46]. Cells were distributed on 96-well plates at a density of 7 × 10^4 cells/mL for adhered cells, and 3 × 10^5 cells/mL for cells in suspension. All tested compounds were dissolved in DMSO, added to wells containing 100 µL of cells in complete medium, and then incubated for 72 h. Eight concentrations of GANT61 (0.19 to 50 µg/mL), Doxorubicin (Laboratory IMA S.A.I.C., Buenos Aires, Argentina), and 5-Fluorouracil (5-FU, Sigma-Aldrich, St. Louis, MO, USA), both used as positive controls at concentrations ranging from 0.03 to 5 µg/mL, were added to respective wells. Cells treated with the vehicle (0.5% DMSO) used to dilute the tested compounds were used as negative controls. Before the end of the incubation period (4 h for cell lines and 24 h for PBMCs), 20 µL of alamarBlue stock solution (resazurin, Sigma-Aldrich, St. Louis, MO, USA) was added to each well. Absorbance was measured at 570 nm (reduced) and 595 nm (oxidized) wavelengths, using a Spectramax 190 plate reader (Molecular Devices; Sunnyvale, CA, USA).
(§4) Statistical analyses were performed, using GraphPad Prism v. 6.03 (GraphPad Software, Inc., San Diego, USA). Data were analyzed according to distribution along the normal Gaussian curve. IC50 values were obtained through non-linear regression, using results from three independent experiments carried out in duplicate. Differences between groups resulting from in vitro assays were evaluated by ANOVA (analysis of variance) testing, followed by the Student–Newman–Keuls test. This study considered a level of significance, corresponding to alpha (α) or “p” value, when results were less than or equal to 5%.

HCT-116 = assay: alamarBlue cytotoxicity assay, HCT-116; settings: Homo sapiens; HCT-116, alamarBlue, 72 h of incubation
Experimental: as §3, §4

SCC9 = assay: alamarBlue cytotoxicity assay, SCC9; settings: Homo sapiens, SCC-9, 72 h of incubation
Experimental: as §3, §4

APC03 = assay: alamarBlue cytotoxicity assay, APC03; settings: Homo sapiens, 72 h of incubation
Experimental: as §1, §2

SCC15 = assay: alamarBlue cytotoxicity assay, SCC15; settings: Homo sapiens, SCC-15, 72 h of incubation
Experimental: as §1, §2

HL60 = assay: alamarBlue cytotoxicity assay, HL60; settings: Homo sapiens, HL-60, 72 h of incubation
Experimental: as §1, §2

HSC3 = assay: alamarBlue cytotoxicity assay, HSC3; settings: Homo sapiens, HSC-3, 72 h of incubation
Experimental: For cytotoxicity assessments, this study primarily focused on the highly metastatic HSC3 OSCC cell line (JCRB Cell Bank, Osaka, Japan) and employed other histological tumor cell types and non-tumor cells (Supplementary Table S1). HSC3 cells were placed in flasks ([…], 250 mL volume) containing DMEM medium (Gibco, Lif Technologies, Gaithesburg, MD, USA) supplemented with 10% fetal bovine serum (FBS, Gibco, Life Technologies, Gaithesburg, MD, USA) 1% penicillin, 1% streptomycin (Gibco, Life Technologies, Gaithesburg, MD, USA), and 0.8% hydrocortisone (Sigma-Aldrich, St. Louis, MO, USA). Cells were cultured and kept in incubators, under an atmosphere of 5% CO2 at 37 °C. Trypsinization was used to dissociate cells when cell growth reached the necessary confluence, i.e., 70 to 80% of the total culture flask volume. Cell cultures were tested periodically for mycoplasma contamination and evaluated by using a luminometer, according to the MycoAlert^TM PLUS protocol (Lonza, Walkersville Inc., Walkersville, MD, USA, 2012).
as §3
Statistical analyses were performed, using GraphPad Prism v. 6.03 (GraphPad Software, Inc., San Diego, USA). Data were analyzed according to distribution along the normal Gaussian curve. […] Differences between groups resulting from in vitro assays were evaluated by ANOVA (analysis of variance) testing, followed by the Student–Newman–Keuls test. […]

SCC4 = assay: alamarBlue cytotoxicity assay, SCC4; settings: Homo sapiens, SCC-4, 72 h of incubation
Experimental: as §1, §2

HaCat = assay: alamarBlue cytotoxicity assay, HaCat; settings: Homo sapiens, 72 h of incubation
Experimental: as §1, §2

APC02 = assay: alamarBlue cytotoxicity assay, APC02; settings: Homo sapiens, 72 h of incubation
Experimental: as §1, §2

SCC25 = assay: alamarBlue cytotoxicity assay, SCC25; settings: Homo sapiens, SCC-25, 72 h of incubation
Experimental: as §1, §2

PBMC = assay: alamarBlue cytotoxicity assay, PBMC; settings: Homo sapiens, 72 h of incubation
Experimental: Human peripheral blood mononuclear cells (PBMC) lymphocytes and monocytes) were obtained from the peripheral blood of healthy, non-smoking volunteers aged 25–35 years. None of the volunteers had used any type of drug or medication for at least 15 days prior to collection. Blood collection (5 mL) was performed in heparinized vials by trained professionals at the Laboratory of Tissue Engineering and Immunopharmacology (LETI, IGM-FIOCRUZ, Salvador, Brazil), using sterile disposable syringes. PBMCs were isolated by a standard protocol described by Dias et al. (2018). The institutional review board of the Gonçalo Moniz Institution, Oswaldo Cruz Foundation (IGM-FIOCRUZ), in Salvador, Bahia, Brazil, approved all experimental protocols (No.031019/2013). All participants provided written informed consent prior to participation in the study.
as §1, with “h.” for “h. Eight concentrations of GANT61 (0.19 to 50 µg/mL), Doxorubicin (Laboratory IMA S.A.I.C., Buenos Aires, Argentina), and 5-Fluorouracil (5-FU, Sigma-Aldrich, St. Louis, MO, USA), both used as positive controls at concentrations ranging from 0.03 to 5 µg/mL, were added to respective wells.”
as §2

CAL27 = assay: alamarBlue cytotoxicity assay, CAL27; settings: Homo sapiens, CAL-27, 72 h of incubation
Experimental: as §3, §4

HT-29 = assay: alamarBlue cytotoxicity assay, HT-29; settings: Homo sapiens; HT-29, alamarBlue, 72 h of incubation
Experimental: as §1, §2

HepG2 = assay: alamarBlue cytotoxicity assay, HepG2; settings: Homo sapiens, 72 h of incubation
Experimental: as §3, §4

Work on `COc1cccc2c1C(=O)c1c(O)c3c(c(O)c1C2=O)C[C@@](O)(C(=O)CO)C[C@@H]3O[C@H]1C[C@H](N)[C@H](O)[C@H](C)O1` [Doxorubicin] yielded an IC50 (AGP01) of 1.89 µM, an IC50 (K562) of 0.05 µM and an IC50 (HCT-116) of 0.2 µM. The IC50 (SCC9) was 0.8 µM, the IC50 (APC03) was 2.3 µM and the IC50 (SCC15) was 1.5 µM. The IC50 (HL60) was 0.01 µM, the IC50 (HSC3) was 0.34 µM and the IC50 (SCC4) was 0.07 µM. The IC50 (HaCat) was 0.1 µM, the IC50 (APC02) was 6.8 µM and the IC50 (SCC25) was 1.4 µM. The IC50 (PBMC) was 5.2 µM, the IC50 (CAL27) was 3.09 µM and the IC50 (HT-29) was 0.3 µM. For the same compound, the IC50 (HepG2) was 0.01 µM.
